Data on eleven compounds can be found in patent US11358973B2, “Di(hetero)aryl macrocyclic compound for inhibiting protein kinase activity” (Shenzhen TargetRx, Inc., priority 2018, dated 2022).

What is called IC50 is the concentration that inhibits the measured activity by half. What is called AUC(0-t) is exposure summed from dosing to a finite time, without extrapolation to infinity. Broadly, the Cmax is the maximum level reached in the sampled fluid or tissue. One may read the Tmax as the time at which the peak concentration occurs. In general, half-life refers to how long it takes for the measured level to halve. In general, bioavailability refers to the share of a dose that reaches the circulation, judged against a reference dose that is usually intravenous.

Where two headings read alike, the source gives them in different places.

For one series, the target named is TRKA kinase (Homo sapiens, UniProt P04629). Kind of series: Biochemical kinase analysis (HTRF), TRKA. The following applies: 23° C., read-out: Kinase IC50 (nM) TRK A. How it is done:
(§1) Inhibition of TRKA, TRKB, TRKC kinases can be measured by HTRF ([…]) method. The reaction was performed in a 384-well plate at 23° C. with a volume of 20 μL. TRKA TRKB or TRKC kinase were mixed with pre-formulated and diluted compounds of different concentrations for ten minutes in duplicate for each concentration, wherein 11 concentrations made with a 3-fold gradient dilution from the starting concentration of 300 nM were made and the final concentration of DMSO was 2%. The corresponding substrate and ATP were added thereto, and reacted at room temperature for 20 minutes (both a negative and a positive control were set: negative control is blank control, positive control is Entrectinib). After the reaction, detection reagent was added thereto (reagent in HTRF Kinase TK kit), and after incubation at room temperature for 30 minutes, detection was carried out by PerkinElmer Envision microplate reader for determining enzyme activity in the presence of the compounds of the present disclosure at various concentrations, and the inhibitory activity of different concentrations of compounds against enzyme activity was calculated. After that, in accordance with four-factors function and Graphpad 5.0 software, inhibitory activity on enzyme activity under different concentrations of compounds was fitted and IC50 values were calculated.

In a further series the target is TRKC kinase (Homo sapiens, UniProt Q16288). In words: Biochemical kinase analysis (HTRF), TRKC. The conditions noted are these: 23° C., read-out: Kinase IC50 (nM) TRK C. As for the experimental part:
as §1
A general note: In TR-FRET formats the signal depends on donor and acceptor labels being close together.

The target in the next series is TRKB kinase (Homo sapiens, UniProt Q16620). Kind of series: Biochemical kinase analysis (HTRF), TRKB. The conditions noted are these: 23° C., read-out: Kinase IC50 (nM) TRK B. How it is done:
as §1

Another series relates to KM12 cell line. In words: KM12 cell proliferation analysis (CellTiter-Glo). The following applies: Homo sapiens, 72 h. It is filed as cell-based. As for the experimental part:
The CGT method was used to detect the in vitro anti-proliferative activity of the compounds of the present disclosure on tumor cells cultured in vitro. The KM12 cell line was maintained in RPMI-1640 medium containing 10% fetal bovine serum and antibiotics, the cells in the logarithmic growth phase were harvested and planted in a 96-well plate. The plate was incubated in an incubator at 37° C., containing 5% carbon dioxide gas overnight. After the test compounds were dissolved in DMSO, a 3-fold concentration gradient dilution with 9 compound concentrations was made. Pre-prepared compounds of different concentrations were transferred to the cell plate in triplicate for each concentration, and continue culturing for 72 h. The final concentration of DMSO in the system was 0.1%, and the initial concentration of the test compound was 300 nM.
CellTiter-Glo reagent was added to the cell plate, and incubated at room temperature for 30 minutes to stabilize the optical signal. Detection was carried out by PerkinElmer Envision microplate reader for determining the inhibitory activity of the compound of the present disclosure at various concentrations on cell proliferation. The inhibitory activity of compounds at different concentrations on cell proliferation was fitted according to Graphpad 5.0 software, and IC50 values were calculated.
(In general: In ATP-based viability assays light output follows the ATP content of the culture.)

Series [1] is described as follows: Pharmacokinetic experiment in rats. The format is in vivo, Sprague-Dawley rats. Set-up: Cl_pred (L/kg): unit not given here. The conditions noted are these: rat; for AUC(0-t) / Cmax / Tmax / half-life / AUC(0-inf) / MRT inf / bioavailability: male, Sprague-Dawley, plasma; for AUC(0-inf): read-out: AUCINF_pred; for MRT inf: read-out: MRTINF_pred; for bioavailability: PO 10 mg/kg vs IV 3 mg/kg. As for the experimental part:
6 male Sprague-Dawley rats (7-8 weeks old, and weighing approximately 210 g) were divided into 2 groups with 3 rats in each group. The rats were intravenously or orally administered a single dose of compounds (3 mg/kg intravenously, 10 mg/kg orally) to compare pharmacokinetic differences.
The rats were feeded on standard food and water. Fasting was started 16 hours before the test. The drug was dissolved in PEG400 and dimethyl sulfoxide. The blood samples were collected from eyelids at the time points of 0.083 hour, 0.25 hour, 0.5 hour, 1 hour, 2 hours, 4 hours, 6 hours, 8 hours, 12 hours, and 24 hours after administration.
Rats were briefly anesthetized after inhalation of diethyl ether and 300 μL of blood sample was collected from the eyelids into test tubes. There was 30 μL of 1% heparin salt solution in the test tube. Tubes were dried at 60° C. overnight before use. After the blood sample was collected at the last time point, the rats were sacrificed after ether anesthesia.
Immediately after the collection of the blood sample, the test tube was gently inverted at least 5 times to ensure sufficient mixing and then placed on ice. The blood sample was centrifuged at 5000 rpm at 4° C. for 5 minutes to separate the plasma from the red blood cells. 100 μL of plasma was aspirated into a clean plastic centrifuge tube with a pipette, marking with the name of the compound and time point. Plasma was stored at −80° C. prior to analysis. The concentration of the compound of the present disclosure in plasma was determined by LC-MS/MS. The pharmacokinetic parameters were calculated based on the blood concentration of the drug for each animal at different time points.

TRKB kinase, sequence (Q16620 32-822): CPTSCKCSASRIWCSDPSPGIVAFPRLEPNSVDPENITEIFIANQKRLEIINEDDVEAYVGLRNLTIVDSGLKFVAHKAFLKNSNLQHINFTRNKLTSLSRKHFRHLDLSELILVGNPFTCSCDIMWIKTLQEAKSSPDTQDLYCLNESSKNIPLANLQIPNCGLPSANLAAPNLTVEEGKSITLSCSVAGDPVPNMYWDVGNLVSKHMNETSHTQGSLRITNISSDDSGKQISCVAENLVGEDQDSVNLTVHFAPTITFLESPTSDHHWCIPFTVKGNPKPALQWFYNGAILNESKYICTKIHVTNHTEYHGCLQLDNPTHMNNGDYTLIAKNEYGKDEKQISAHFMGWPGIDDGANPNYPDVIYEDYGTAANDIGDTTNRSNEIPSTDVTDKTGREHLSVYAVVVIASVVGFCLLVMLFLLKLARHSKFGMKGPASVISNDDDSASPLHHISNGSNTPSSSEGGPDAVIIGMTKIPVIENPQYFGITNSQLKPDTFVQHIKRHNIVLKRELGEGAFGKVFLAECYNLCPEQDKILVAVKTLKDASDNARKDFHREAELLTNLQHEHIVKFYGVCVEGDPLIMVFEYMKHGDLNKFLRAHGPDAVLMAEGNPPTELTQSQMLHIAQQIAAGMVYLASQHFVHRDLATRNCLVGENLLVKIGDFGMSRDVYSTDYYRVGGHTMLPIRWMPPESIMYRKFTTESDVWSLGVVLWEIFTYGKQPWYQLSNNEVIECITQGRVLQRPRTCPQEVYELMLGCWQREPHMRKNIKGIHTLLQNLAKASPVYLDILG
TRKC kinase, sequence (Q16288 32-839): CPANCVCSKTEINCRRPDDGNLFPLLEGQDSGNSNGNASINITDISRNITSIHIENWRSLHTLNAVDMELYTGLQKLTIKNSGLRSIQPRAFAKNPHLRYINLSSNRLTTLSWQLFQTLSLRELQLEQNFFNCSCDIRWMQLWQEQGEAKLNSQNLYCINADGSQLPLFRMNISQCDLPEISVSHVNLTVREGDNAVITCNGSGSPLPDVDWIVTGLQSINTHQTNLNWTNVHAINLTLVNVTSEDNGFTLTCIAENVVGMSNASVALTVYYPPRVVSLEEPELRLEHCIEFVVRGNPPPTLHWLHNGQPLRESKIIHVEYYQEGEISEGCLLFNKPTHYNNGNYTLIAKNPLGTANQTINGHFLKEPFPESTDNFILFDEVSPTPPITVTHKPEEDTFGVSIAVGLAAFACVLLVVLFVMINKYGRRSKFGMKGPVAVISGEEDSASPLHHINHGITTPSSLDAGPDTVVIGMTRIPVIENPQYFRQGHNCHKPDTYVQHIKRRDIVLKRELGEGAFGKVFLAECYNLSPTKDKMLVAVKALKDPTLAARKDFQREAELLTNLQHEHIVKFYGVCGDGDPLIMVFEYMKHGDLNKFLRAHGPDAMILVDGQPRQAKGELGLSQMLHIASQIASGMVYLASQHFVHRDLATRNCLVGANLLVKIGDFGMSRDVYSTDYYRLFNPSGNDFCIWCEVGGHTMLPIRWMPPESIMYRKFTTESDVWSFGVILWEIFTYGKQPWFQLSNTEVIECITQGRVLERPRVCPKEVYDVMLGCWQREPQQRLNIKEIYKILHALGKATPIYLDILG
TRKA kinase, sequence (P04629 33-796): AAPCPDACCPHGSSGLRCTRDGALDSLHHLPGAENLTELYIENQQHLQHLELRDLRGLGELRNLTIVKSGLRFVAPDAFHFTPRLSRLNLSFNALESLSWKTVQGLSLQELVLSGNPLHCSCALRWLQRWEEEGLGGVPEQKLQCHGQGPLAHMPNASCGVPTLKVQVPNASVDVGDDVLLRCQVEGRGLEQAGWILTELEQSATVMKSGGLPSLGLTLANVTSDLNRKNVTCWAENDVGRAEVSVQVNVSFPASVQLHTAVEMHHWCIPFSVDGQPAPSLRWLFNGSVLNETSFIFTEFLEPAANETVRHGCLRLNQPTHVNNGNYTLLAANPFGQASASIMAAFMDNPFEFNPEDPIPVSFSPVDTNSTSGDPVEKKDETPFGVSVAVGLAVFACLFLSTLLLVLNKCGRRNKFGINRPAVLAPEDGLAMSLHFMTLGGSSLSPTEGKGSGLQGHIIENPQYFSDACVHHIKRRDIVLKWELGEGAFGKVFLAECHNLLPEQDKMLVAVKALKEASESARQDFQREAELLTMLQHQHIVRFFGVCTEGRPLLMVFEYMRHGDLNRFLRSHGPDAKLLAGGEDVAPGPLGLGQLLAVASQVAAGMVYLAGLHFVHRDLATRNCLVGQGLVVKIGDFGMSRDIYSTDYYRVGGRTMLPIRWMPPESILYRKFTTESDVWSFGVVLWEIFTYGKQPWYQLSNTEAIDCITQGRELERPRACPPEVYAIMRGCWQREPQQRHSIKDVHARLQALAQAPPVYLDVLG

Take `CC1(C)COc2ccc(F)cc2[C@@H]2CCCN2c2ccn3ncc(c3n2)NC1=O` [Compound L-3-B, (6S)-9-fluoro-15,15-dimethyl-13-oxa-2,17,20,21,24-pentaazapentacyclo[16.5.2.0^2,6.0^7,12.0^21,25]pentacosane-1(24),7,9,11,18(25),19,22-heptaene-16-one]: the IC50 at TRKA kinase is above 100 nM; on TRKC kinase, above 100 nM; on TRKB kinase it was 70.8 nM.
As for `C[C@H]1CC(=O)Nc2cnn3ccc(nc23)N2CCC[C@H]2c2cc(F)ccc2O1` [Compound L-2-B, (6S,14S)-9-fluoro-14-methyl-13-oxa-2,17,20,21,24-pentaazapentacyclo[16.5.2.0^2,6.0^7,12.0^21,25]pentacosane-1(24),7,9,11,18(25),19,22-heptaene-16-one], the IC50 in the series with KM12 cell line worked out at 0.65 nM; on TRKA kinase, 0.41 nM; on TRKC kinase it was 0.18 nM; at TRKB kinase, 0.13 nM.
Regarding `C[C@@H]1CCc2ncc(F)cc2[C@H]2CCCN2c2ccn3ncc(c3n2)C(=O)N1` [LOXO-195, reference compound], half-maximal inhibition in the series with KM12 cell line (IC50) was put at 2.73 nM. In series [1] (IV 3 mg/kg), the AUC(0-t) is 4670 ng·h/mL, the Cmax came out at 5010 ng/mL, the Tmax worked out at 0.08 h and the half-life was 1.45 h. Further, in series [1] (IV 3 mg/kg), the AUC(0-inf) was 4670 ng·h/mL, the MRT inf stood at 0.54 h and the “Vz_pred” value amounted to 0.75 L/kg. Also, in series [1] (PO 10 mg/kg), the AUC(0-t) was 4070 ng·h/mL, the peak level (Cmax) was 1660 ng/mL, the Tmax was determined as 0.33 h and the half-life is 4.11 h. Besides, in series [1] (PO 10 mg/kg), the AUC(0-inf) was 4090 ng·h/mL, the MRT inf was 2.31 h and the “Vz_pred” value amounted to 5.13 L/kg. In series [1], the bioavailability was found to be 26.2%.
Regarding `C[C@H]1Nc2ccn3ncc(c3n2)NC(=O)CCOc2ccc(F)cc21` [Compound T-1, (13R)-11-fluoro-13-methyl-6,7,13,14-tetrahydro-1,15-ethenopyrazolo[4,3-f][1,4,8,10]benzoxatriazacyclotridecin-5(6H)-one], in the series with KM12 cell line, the midpoint of inhibition, the IC50, lay at 5.13 nM. In addition, the IC50 on TRKA kinase is below 0.17 nM. The IC50 at TRKC kinase is below 0.17 nM. Also, in series [1] (IV 3 mg/kg), the AUC(0-t) came out at 6240 ng·h/mL, the Cmax stood at 2120 ng/mL, the Tmax came out at 0.08 h and the half-life is 9.05 h. For the same compound, in series [1] (IV 3 mg/kg), the AUC(0-inf) worked out at 6350 ng·h/mL, the MRT inf was found to be 4.04 h, the “Cl_pred (L/kg)” value is reported as 0.47 and the “Vz_pred” value is given as 3.28 L/kg. Besides, in series [1] (PO 10 mg/kg), the AUC(0-t) stood at 11500 ng·h/mL, the Cmax was found to be 1860 ng/mL, the Tmax amounted to 1.67 h and the half-life was 0.36 h. In series [1] (PO 10 mg/kg), the AUC(0-inf) was found to be 13100 ng·h/mL, the MRT inf stood at 6.23 h, the “Cl_pred (L/kg)” value came to 0.77 and the “Vz_pred” value is listed as 10.05 L/kg. This compound also gave a bioavailability in series [1] of 55.5%. Also, the IC50 at TRKB kinase was below 0.17 nM.
As to `O=C1CCOc2ccc(F)cc2[C@@H]2CCCN2c2ccn3ncc(c3n2)N1` [Compound L-1-B, (6S)-9-fluoro-13-oxa-2,17,20,21,24-pentaazapentacyclo[16.5.2.0^2,6.0^7,12.0^21,25]pentacosane-1(24),7,9,11,18(25),19,22-heptaene-16-one], the IC50 in the series with KM12 cell line is 162 nM; at TRKA kinase, 21.1 nM; at TRKC kinase, 14.2 nM; on TRKB kinase, 15.5 nM.
Taken in the same sequence, the figures for `C[C@@H]1Nc2ccn3ncc(c3n2)NC(=O)C[C@H](C)Oc2ccc(F)cc21` [Compound T-2-B, (7S,13S)-11-fluoro-7,13-dimethyl-6,7,13,14-tetrahydro-1,15-ethenopyrazolo[4,3-f][1,4,8,10]benzoxatriazacyclotidecin-5(6H)-one] were 4.79 nM, 0.36 nM, 0.09 nM and 0.09 nM.
Taken in the same sequence, the figures for `O=C1CCOc2ccc(F)cc2C2CCCN2c2ccn3ncc(c3n2)N1` (racemic) [Compound 9a, 9-fluoro-13-oxa-2,17,20,21,24-pentaazapentacyclo[16.5.2.0^2,6.0^7,12.0^21,25]pentacosane-1(24),7,9,11,18(25),19,22-heptaene-16-one] were 1.78 nM, 0.17 nM, 0.1 nM and 0.1 nM.
`C[C@H]1Nc2ccn3ncc(c3n2)NC(=O)C(C)(C)COc2ccc(F)cc21` [Compound T-3]: the IC50 at TRKA kinase stood at 0.34 nM; at TRKC kinase, 0.52 nM; on TRKB kinase, 0.57 nM.
For the compound `C[C@H]1CNC(=O)c2cnn3ccc(nc23)N[C@H](C)c2cc(F)ccc2O1` [TPX-0005, reference compound], inhibition in the series on KM12 cell line was half-maximal at 1.97 nM (IC50). Also, in series [1] (IV 3 mg/kg), the AUC(0-t) is 3560 ng·h/mL, the peak level (Cmax) was 2190 ng/mL, the Tmax was 0.08 h and the half-life is 5.77 h. Moreover, in series [1] (IV 3 mg/kg), the AUC(0-inf) was 3580 ng·h/mL, the MRT inf stood at 1.76 h and the “Vz_pred” value is recorded as 4.46 L/kg. For the same compound, in series [1] (PO 10 mg/kg), the AUC(0-t) is 5470 ng·h/mL, the Cmax was 732 ng/mL, the Tmax was 1.67 h and the half-life was 0.76 h. In addition, in series [1] (PO 10 mg/kg), the AUC(0-inf) was found to be 5590 ng·h/mL, the MRT inf turned out to be 5.42 h and the “Vz_pred” value amounted to 15.81 L/kg. This compound came in with a bioavailability in series [1] of 46.1%.
On to `C[C@H]1Nc2ccn3ncc(c3n2)NC(=O)NCCCc2ccc(F)cc21` [Compound T-5, (14R)-12-fluoro-14-methyl-5,6,7,8,14,15-hexahydro-1,16-ethenopyrazolo[4,3-g][1,4,9,11]benzodioadiazatridecin-5(6H)-one], for which the IC50 worked out at 93.9 nM at TRKA kinase, 258 nM on TRKC kinase and 225 nM on TRKB kinase.
Consider `C[C@H]1Nc2ccn3ncc(c3n2)NC(=O)NCCOc2ccc(F)cc21` [Compound T-4, (14R)-12-fluoro-14-methyl-5,6,7,8,14,15-hexahydro-1,16-ethenopyrazolo[4,3-g][1,4,9,11]benzoxatetraazacyclotetradecin-5(6H)-one], for which the values for the IC50 at TRKA kinase, at TRKC kinase and on TRKB kinase were 4.91 nM, 5.41 nM and 5.31 nM, respectively.
